US20230190703A1, “TREATING SAR-COV-2 RELATED HEALTH PROBLEMS” (priority 2021, published 2023)

Experiments:
U937 cells [1] = experiment: caspase 9 assay; assay type: cell-based, human; details: with SPK
Procedure: (§1) The cells used in this example originated from the cell line U937 cells and were purchased from ATCC.
The cells were treated in a 6-well plate with the treatment plan of control, A1 10 μM, A2 10 μM, SPK10 μM, A1+SPK10 μM, and A2+SPK10 μM for 24 hours and collected in a 1.5 ml tube. Then, Colo cells were lysed by freezing and thawing 4 times. Then, 50 μl of caspase assay buffer will be added to every well of an empty 96-well plate. Also, 50 μl of lysis buffer will be added to the blank wells and 45 μl added to the treatment and control wells. 5 μl of lysed cells will be added to each treatment well with 5 μl of pNA Substrate Solution indeed to every well. The plate will then be taken for a reading at zero time point using a microplate reader at 405 nm. Afterwards, the plate will be covered and incubated at 37 degrees Celsius. […] The data from the Caspase Assay will be analyzed by calculating the change in optical density per minute (ΔOD). The ΔOD is obtained through subtracting the sample's start OD from the sample's final OD to determine the overall change in absorbance. The ΔOD/minutes is calculated by taking the ΔOD and dividing by the overall time in minutes. The ΔOD per minute of each sample is compared to the control by a percent change to determine the activity of caspase and apoptosis. The OD of the blank samples are subtracted from the OD of the treated sample to normalize the data and ensure minimal interference.

U937 cells [2] = experiment: LDH assay (percent cytotoxicity); assay type: cell-based, human; details: for cytotoxicity decrease: 10 μM, cytotoxicity induced by SPK; for effect on SPK-induced cytotoxicity at higher concentration: as concentrations increased (100 μM); for effect on cytotoxic effect of SPK (LDH): combined with SPK
Procedure: as §1
10 μls of chemicals provided by ATCC were added into a 96-well plate with the treatment plan of control, control, control, SPK 10 μM, A1 10 μM, A1 100 μM, A2 10 μM, A2 100 μM, SPK+A1 10 μM, SPK+A1 100 μM, SPK+A2 10 μM, and SPK+A2 100 μM. After incubation for 48 hours, 30 μls of media from each well were removed and added into another 96 well plate labeled as released LDH. 30 microliters of LDH substrate mix were added to the released LDH plate to measure the released LDH by the cells from the treatments. This plate was left at room temperature and away from direct light for 30 minutes. After 30 minutes, 30 μls of LDH stop solution was added to each well to terminate the assay and prevent further color changes. The plate was placed in a microplate reader and optical density (OD) was determined for each sample at 490 nm. Another reading at 655 nm was performed to determine if there was any background interference with the reading. Then, 10 μls of LDH lysis buffer were added to the original plate containing the cells to lyse all the cells and to measure a total or maximum LDH for each sample. Another empty 96 well plate was then labeled total LDH. 30 μls of the cell lysate and media were transferred from the original plate containing the lysed cells into the empty 96 well plate labeled as total LDH. 30 μls of LDH substrate mix were added to each sample to measure the total LDH. The plate was left at room temperature for 30 minutes away from direct light. After the 30 minutes, 30 μls of LDH stop solution were added to each well to terminate the experiment. The OD of the total LDH plate was measured following the same measurement steps for the released LDH. The data collected from the 490 nm wavelength was subtracted by the data collected from the 655 nm wavelength to find the corrected OD for each sample's released and total LDH. The percent cytotoxicity was later calculated by the equation: (Sample OD released LDH−control OD released LDH)/(Sample OD total LDH−control OD released LDH)*100 and T-tests were applied to each group to measure significance for percent cytotoxicity.

colo 320 cells [3] = system: colo 320 cells
colo 320 cells [4] = assay type: cell-based, human
monocyte = details: literature; cited from earlier work
U937 cells [5] = assay type: cell-based, human

Row | SMILES | decrease of caspase activity that was increased by SPK (U937 cells [1]) | effect on SPK caused apoptosis (caspase) (U937 cells [1]) | cytotoxicity decrease (U937 cells [2]) | effect on SPK-induced cytotoxicity at higher concentration (U937 cells [2]) | effect on cytotoxic effect of SPK (LDH) (U937 cells [2]) | mitigation of SPK induced cytotoxicity (colo 320 cells [3]) | mitigation of SPK induced caspase apoptosis (colo 320 cells [4]) | monocyte cell adhesion (monocyte) | decrease in adhesion molecule expression (U937 cells [5]) | decrease of cell adhesion (U937 cells [5]) | effect on adhesion molecule expression, in words (U937 cells [5])
1 | C[C@@H]1CC[C@H]2[C@@H](C)C(=O)O[C@@H]3O[C@@]4(C)CC[C@@H]1[C@]32OO4 [A1, Artemisinin] | around 68% | decrease SPK caused apoptosis significantly | around 2.4% | the effectiveness decreased | reversed the cytotoxic effect of SPK from a positive value to a negative value | changed the cytotoxicity to a negative value | remediate the increase in caspase apoptosis to a negative level | inhibit monocyte cell adhesion | around 70% | about 73% | significantly decreased the adhesion molecule expression
2 | C[C@H]1[C@H](OC(=O)CCC(=O)O)O[C@@H]2O[C@@]3(C)CC[C@H]4[C@H](C)CC[C@@H]1[C@@]24OO3 [A2, Artesunate] | ~70% | decrease SPK caused apoptosis significantly | around 0.8% | the effectiveness decreased | reversed the cytotoxic effect of SPK from a positive value to a negative value | changed the cytotoxicity to a negative value | remediate the increase in caspase apoptosis to a negative level | inhibit monocyte cell adhesion | around 68% | around 70% | significantly decreased the adhesion molecule expression
